Experimental data as given in patent publication US20190059378A1, “SYNERGISTIC FUNGICIDAL COMPOSITION FOR CONTROLLING PLANT DISEASES” (Sumitomo Chemical Company, Limited, priority 2016, published 2019).

Columns and labels:
[1] = test system: Septoria leaf blotch (Mycosphaerella graminicola); experiment: Test Example 3: growth of Septoria leaf blotch in YBG medium in microtiter plate (absorbance at 550 nm); type: cell-based; details: single use, 18° C., four days
Description: Each of the present compound 1-1 or the present compound 2 was dissolved into dimethyl sulfoxide such that each concentration of these compounds was adjusted to one hundred fifty times as much as the concentration indicated in the below-mentioned Table 3. The resultant agent solution was dispensed into each microtiter plate (with 96 wells) in 1 μl portion thereof per well. […] The plate was cultivated at 18° C. for four days, thereby allowing Septoria leaf blotch (Mycosphaerella graminicola) to undergo proliferation, and the absorbance at 550 nm of each well of the microtiter plate was then measured to examine a degree of growth of Septoria leaf blotch (hereinafter referred to as “treated group”).
Whereas, Septoria leaf blotch was proliferated similarly to the case of the treated group except that dimethyl sulfoxide was used instead of the agent solution, and the degree of the growth was examined (hereinafter referred to as “untreated group”). The efficacy was calculated from each of the obtained degree of growth of the treated group and the untreated group respectively by the following “Equation 1”. […]

[2] = test system: Brown rust (Puccinia recondita); experiment: Test Example 4: foliar spray on wheat, Brown rust lesion area; type: in vivo, Puccinia recondita on wheat (cultivar. Shirogane); details: single use, foliar spray one day before inoculation
Description: Five(5) parts of the present compound 1-1, 35 parts of a mixture of white carbon and ammonium polyoxyethylene alkyl ether sulfate (the weight ratio of 1:1) and 55 parts of water were mixed, and the mixture was then finely-ground by a wet grinding method to obtain a flowable comprising the present compound 1-1. Separately, the flowable comprising the present compound 2 was prepared according to the above-mentioned similar method except that the present compound 2 was used instead of the present compound 1-1.
Each of the flowable comprising the present compound 1-1 and the flowable comprising the present compound 2 was diluted with water and if necessary, the resultant dilute solutions were mixed each other such that each concentration of the respective compounds in the dilution solution was adjusted to the concentration indicated in Table 4, to prepare the dilution solutions, respectively.
A plastic pot was filled with soil, and thereto wheat (cultivar. Shirogane) was seeded, and the plants were grown in a greenhouse for ten days. The above-mentioned dilution solutions were sprayed to foliar parts so as to adhere adequately onto the surfaces of leaves of the above wheats. After spraying the dilute solution, the plants were air-dried, and one day after the application, an aqueous suspension of uredospores of Brown rust (Puccinia recondita) was inoculated by spraying thereto. After the inoculation, the plants were placed at 27° C. under humid condition for one day, and were then cultivated under lighting for ten days, and a lesion area was examined (hereinafter referred to as “lesion area of treated group”).
Whereas, wheats were cultivated similarly to the treated group except that no foliage application of the above-mentioned agent solution was done, and Brown rust were inoculated, and the lesion area thereof was examined (hereinafter referred to as “lesion area of the untreated group”).
From each of the lesion area of the treated group and the untreated group, respectively, the efficacy of the treated group was calculated by the following Equation 2. […]

| SMILES | Efficacy (%) ([1]; concentration in medium 0.005 ppm) | Efficacy (%) ([2]; concentration in agent solution 0.0001 ppm) | Efficacy (%) ([2]; concentration in agent solution 0.01 ppm) | Efficacy (%) ([1]; concentration in medium 0.05 ppm) | Efficacy (%) ([2]; concentration in agent solution 0.001 ppm) |
| --- | --- | --- | --- | --- | --- |
| Cc1nnc(Cl)c(-c2c(F)cccc2F)c1-c1ccccc1 [Present compound 1-1] | 4 | 20 | 31 | – | – |
| CC1CC(C)(C)c2c(F)ccc(NC(=O)c3cn(C)nc3C(F)F)c21 (centres unmarked) [Present compound 2] | – | – | – | 55 | 15 |
